Source: PubChem BioAssay (NCI)
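GI50 is the concentration that inhibits growth by half. TGI: concentration producing complete growth inhibition.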

Assays:
Assay in all cases: DTP human tumour cell line panel, 384-well format
[1] = tested on: NCI-H226 lung
[2] = tested on: UO-31 renal
[3] = tested on: PC-3 prostate
[4] = tested on: SK-MEL-2 melanoma
[5] = tested on: OVCAR-3 ovarian
[6] = tested on: HOP-62 NSCLC
[7] = tested on: K-562 leukemia
[8] = tested on: A549 NSCLC
[9] = tested on: RXF 393 renal
[10] = tested on: SF-268 CNS
[11] = tested on: SK-MEL-28 melanoma
[12] = tested on: SF-295 CNS
[13] = tested on: COLO 205 colon
[14] = tested on: SW-620 colon
[15] = tested on: HS 578T breast
[16] = tested on: SN12C renal
[17] = tested on: TK-10 renal
[18] = tested on: KM12 colon
[19] = tested on: SNB-19 CNS
[20] = tested on: SR leukemia
[21] = tested on: MDA-MB-231 breast
[22] = tested on: HT29 colon
[23] = tested on: 786-0 renal
[24] = tested on: LOX IMVI melanoma
[25] = tested on: MDA-MB-435 melanoma
[26] = tested on: HCC-2998 colon
[27] = tested on: SF-539 CNS
[28] = tested on: A498 renal
[29] = tested on: MDA-MB-468 breast
[30] = tested on: NCI-H23 lung
[31] = tested on: DU-145 prostate
[32] = tested on: CCRF-CEM leukemia
[33] = tested on: UACC-257 melanoma
[34] = tested on: HL-60(TB) leukemia
[35] = tested on: U251 glioblastoma
[36] = tested on: M14 melanoma
[37] = tested on: SK-OV-3 ovarian
[38] = tested on: NCI-H322M lung
[39] = tested on: IGROV1 ovarian
[40] = tested on: OVCAR-5 ovarian
[41] = tested on: NCI-H460 NSCLC
[42] = tested on: NCI-H522 lung
[43] = tested on: HCT-15 colon
[44] = tested on: BT-549 breast
[45] = tested on: EKVX NSCLC
[46] = tested on: SNB-75 CNS
[47] = tested on: UACC-62 melanoma

Question: Which GI50 [1] does the source give for `O=C(O)c1ccc(CN2CCC(CN[C@@H]3C[C@H]3c3ccccc3)CC2)cc1` here?
Answer: Its GI50 is over 100 µM.

Question: What about the TGI [1] of the same molecule?
Answer: Its TGI is over 100 µM.

Question: And the GI50 [2]?
Answer: Its GI50 is over 100 µM.

Question: What about the TGI [2] of the same molecule?
Answer: Its TGI is over 100 µM.

Question: What about the GI50 [3] of the same molecule?
Answer: The GI50 was over 100 µM.

Question: What about the TGI [3] of the same molecule?
Answer: The TGI was over 100 µM.

Question: And the GI50 [4]?
Answer: Its GI50 is over 100 µM.

Question: And the TGI [4]?
Answer: The TGI was over 100 µM.

Question: What about the GI50 [5] of the same molecule?
Answer: The GI50 was over 100 µM.

Question: And the TGI [5]?
Answer: Its TGI is over 100 µM.

Question: What about the GI50 [6] of the same molecule?
Answer: The GI50 was over 100 µM.

Question: And the TGI [6]?
Answer: Its TGI is over 100 µM.

Question: What about the GI50 [7] of the same molecule?
Answer: Its GI50 is over 100 µM.

Question: What about the TGI [7] of the same molecule?
Answer: Its TGI is over 100 µM.

Question: And the GI50 [8]?
Answer: Its GI50 is over 100 µM.

Question: And the TGI [8]?
Answer: The TGI was over 100 µM.

Question: And the GI50 [9]?
Answer: Its GI50 is over 100 µM.

Question: What about the TGI [9] of the same molecule?
Answer: Its TGI is over 100 µM.

Question: What about the GI50 [10] of the same molecule?
Answer: The GI50 was over 100 µM.

Question: And the TGI [10]?
Answer: The TGI was over 100 µM.

Question: And the GI50 [11]?
Answer: The GI50 was over 100 µM.

Question: What about the TGI [11] of the same molecule?
Answer: The TGI was over 100 µM.

Question: And the GI50 [12]?
Answer: Its GI50 is over 100 µM.

Question: And the TGI [12]?
Answer: The TGI was over 100 µM.

Question: And the GI50 [13]?
Answer: Its GI50 is over 100 µM.

Question: And the TGI [13]?
Answer: The TGI was over 100 µM.

Question: And the GI50 [14]?
Answer: The GI50 was over 100 µM.

Question: What about the TGI [14] of the same molecule?
Answer: The TGI was over 100 µM.

Question: What about the GI50 [15] of the same molecule?
Answer: Its GI50 is over 100 µM.

Question: And the TGI [15]?
Answer: Its TGI is over 100 µM.

Question: And the GI50 [16]?
Answer: Its GI50 is over 100 µM.

Question: And the TGI [16]?
Answer: Its TGI is over 100 µM.

Question: What about the GI50 [17] of the same molecule?
Answer: Its GI50 is over 100 µM.

Question: And the TGI [17]?
Answer: The TGI was over 100 µM.

Question: What about the GI50 [18] of the same molecule?
Answer: Its GI50 is over 100 µM.

Question: And the TGI [18]?
Answer: The TGI was over 100 µM.

Question: And the GI50 [19]?
Answer: The GI50 was over 100 µM.

Question: What about the TGI [19] of the same molecule?
Answer: Its TGI is over 100 µM.

Question: What about the GI50 [20] of the same molecule?
Answer: The GI50 was over 100 µM.

Question: And the TGI [20]?
Answer: Its TGI is over 100 µM.

Question: What about the GI50 [21] of the same molecule?
Answer: The GI50 was over 100 µM.

Question: What about the TGI [21] of the same molecule?
Answer: The TGI was over 100 µM.

Question: And the GI50 [22]?
Answer: Its GI50 is over 100 µM.

Question: And the TGI [22]?
Answer: The TGI was over 100 µM.

Question: And the GI50 [23]?
Answer: Its GI50 is over 100 µM.

Question: What about the TGI [23] of the same molecule?
Answer: The TGI was over 100 µM.

Question: What about the GI50 [24] of the same molecule?
Answer: Its GI50 is over 100 µM.

Question: What about the TGI [24] of the same molecule?
Answer: The TGI was over 100 µM.

Question: And the GI50 [25]?
Answer: The GI50 was over 100 µM.

Question: And the TGI [25]?
Answer: Its TGI is over 100 µM.

Question: What about the GI50 [26] of the same molecule?
Answer: Its GI50 is over 100 µM.

Question: And the TGI [26]?
Answer: Its TGI is over 100 µM.

Question: And the GI50 [27]?
Answer: Its GI50 is over 100 µM.

Question: And the TGI [27]?
Answer: The TGI was over 100 µM.

Question: And the GI50 [28]?
Answer: Its GI50 is over 100 µM.

Question: And the TGI [28]?
Answer: The TGI was over 100 µM.

Question: What about the GI50 [29] of the same molecule?
Answer: Its GI50 is over 100 µM.

Question: And the TGI [29]?
Answer: Its TGI is over 100 µM.

Question: And the GI50 [30]?
Answer: The GI50 was over 100 µM.

Question: And the TGI [30]?
Answer: The TGI was over 100 µM.

Question: What about the GI50 [31] of the same molecule?
Answer: The GI50 was over 100 µM.

Question: And the TGI [31]?
Answer: Its TGI is over 100 µM.

Question: And the GI50 [32]?
Answer: Its GI50 is over 100 µM.

Question: What about the TGI [32] of the same molecule?
Answer: Its TGI is over 100 µM.

Question: And the GI50 [33]?
Answer: Its GI50 is over 100 µM.

Question: What about the TGI [33] of the same molecule?
Answer: Its TGI is over 100 µM.

Question: What about the GI50 [34] of the same molecule?
Answer: The GI50 was over 100 µM.

Question: What about the TGI [34] of the same molecule?
Answer: Its TGI is over 100 µM.

Question: What about the GI50 [35] of the same molecule?
Answer: The GI50 was over 100 µM.

Question: What about the TGI [35] of the same molecule?
Answer: The TGI was over 100 µM.

Question: And the GI50 [36]?
Answer: Its GI50 is over 100 µM.

Question: What about the TGI [36] of the same molecule?
Answer: Its TGI is over 100 µM.

Question: And the GI50 [37]?
Answer: Its GI50 is over 100 µM.

Question: What about the TGI [37] of the same molecule?
Answer: The TGI was over 100 µM.

Question: What about the GI50 [38] of the same molecule?
Answer: The GI50 was over 100 µM.

Question: And the TGI [38]?
Answer: The TGI was over 100 µM.

Question: What about the GI50 [39] of the same molecule?
Answer: Its GI50 is over 100 µM.

Question: What about the TGI [39] of the same molecule?
Answer: The TGI was over 100 µM.

Question: And the GI50 [40]?
Answer: The GI50 was over 100 µM.

Question: What about the TGI [40] of the same molecule?
Answer: Its TGI is over 100 µM.

Question: And the GI50 [41]?
Answer: Its GI50 is over 100 µM.

Question: And the TGI [41]?
Answer: The TGI was over 100 µM.

Question: And the GI50 [42]?
Answer: The GI50 was over 100 µM.

Question: And the TGI [42]?
Answer: Its TGI is over 100 µM.

Question: What about the GI50 [43] of the same molecule?
Answer: Its GI50 is over 100 µM.

Question: And the TGI [43]?
Answer: The TGI was over 100 µM.

Question: And the GI50 [44]?
Answer: The GI50 was over 100 µM.

Question: What about the TGI [44] of the same molecule?
Answer: The TGI was over 100 µM.

Question: And the GI50 [45]?
Answer: Its GI50 is over 100 µM.

Question: And the TGI [45]?
Answer: The TGI was over 100 µM.

Question: And the GI50 [46]?
Answer: The GI50 was over 100 µM.

Question: What about the TGI [46] of the same molecule?
Answer: Its TGI is over 100 µM.

Question: What about the GI50 [47] of the same molecule?
Answer: The GI50 was over 100 µM.

Question: And the TGI [47]?
Answer: Its TGI is over 100 µM.
